The values that follow come from patent US10954232B2, “Pyrazole derivative as ALK5 inhibitor and uses thereof” (HANMI PHARMACEUTICAL CO., LTD., priority 2016, dated 2021).

Usually IC50 stands for the midpoint of a concentration-inhibition curve. High values mean weaker potency in that assay, low ones greater potency in that assay.

In this assay the target is T1, ALK5 kinase (Homo sapiens, UniProt P36897).
T1 construct: GST; purchased Thermo Fisher Scientific Solutions
T1 sequence (P36897 34-503): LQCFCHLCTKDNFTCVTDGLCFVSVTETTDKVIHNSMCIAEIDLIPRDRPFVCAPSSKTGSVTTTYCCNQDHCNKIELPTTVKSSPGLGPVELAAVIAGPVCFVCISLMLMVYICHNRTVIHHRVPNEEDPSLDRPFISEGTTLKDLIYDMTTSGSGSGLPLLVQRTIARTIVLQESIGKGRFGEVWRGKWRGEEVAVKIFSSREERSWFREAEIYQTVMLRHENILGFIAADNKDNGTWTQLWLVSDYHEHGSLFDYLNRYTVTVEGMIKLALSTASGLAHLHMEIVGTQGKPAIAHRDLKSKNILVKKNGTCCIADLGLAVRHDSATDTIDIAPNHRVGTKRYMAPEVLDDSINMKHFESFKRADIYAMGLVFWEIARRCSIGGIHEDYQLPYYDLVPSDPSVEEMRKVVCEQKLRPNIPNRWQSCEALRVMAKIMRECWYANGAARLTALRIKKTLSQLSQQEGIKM
Briefly: Activity inhibition test on ALK5 enzyme (LanthaScreen Eu binding kinase assay). Conditions: kinase tracer 178, 60 minutes at room temperature. Put shortly:
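IC50 is the concentration giving 50% inhibition relative to control, taken from fluorescence after 60 min stirring at room temperature. Final mix held kinase 5 nM, Eu-GST binding antibody 2 nM and tracer 178 10 nM. Compounds were serially diluted from 1 μM to 0.0001 μM.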
A general note: Time-resolved FRET reads energy transfer from a long-lived donor to a nearby acceptor.
The compound `Cc1cccc(-n2nc(C(=O)Nc3cccc(S(=O)(=O)N(C)C)c3)cc2-c2ccc3ncsc3c2)n1` [Example 51, 5-(benzo[d]thiazol-6-yl)-N-(3-(N,N-dimethylsulfamoyl)phenyl)-1-(6-methylpyridin-2-yl)-1H-pyrazole-3-carboxyamide] yielded an IC50 of 6.5 nM.
With `Cc1cccc(-n2nc(C(=O)Nc3ccc([N+](=O)[O-])cc3)cc2-c2ccc3ncsc3c2)n1` [Example 14, 5-(benzo[d]thiazol-6-yl)-1-(6-methylpyridin-2-yl)-N-(4-nitrophenyl)-1H-pyrazole-3-carboxyamide] the figure was 17 nM.
Consider `Cc1cccc(-n2nc(C(=O)Nc3ccccc3F)cc2-c2cc3cnccc3s2)c1` [Example 227, N-(2-fluorophenyl)-5-(thieno[3,2,c]pyridin-2-yl)-1-(m-tolyl)-1H-pyrazole-3-carboxyamide], for which the IC50 is ~100 nM.
For “5-([1,2,4]triazolo[1,5-α]pyridin-6-yl)-N-(1-cyclopropyl sulfonyl)-1H-pyrazol-4-yl)-1-(6-methylpyridin-2-yl)-1H-pyrazole-3-carboxyamide [Example 163]”, the half-inhibitory concentration (IC50) was 4.6 nM.
With `Cc1cccc(-n2nc(C(=O)Nc3cccc(N(C)C)c3)cc2-c2ccc3ncnn3c2)n1` [Example 102, 5-([1,2,4]triazolo[1,5-α]pyridin-6-yl)-N-(3-(dimethylamino)phenyl)-1-(6-methylpyridin-2-yl)-1H-pyrazole-3-carboxyamide] the figure was 10 to 100 nM.
With `Cc1cccc(-n2nc(C(=O)Nc3ccc(N(C)CCN(C)C)cc3)cc2-c2ccc3ncnn3c2)n1` [Example 106, 5-([1,2,4]triazolo[1,5-α]pyridin-6-yl)-N-(4-((2-(dimethylamino)ethyl)(methyl)amino)phenyl)-1-(6-methylpyridin-2-yl)-1H-pyrazole-3-carboxyamide] the figure was 14 nM; with `Cc1cccc(-n2nc(C(=O)NCc3ccc(Cl)cc3)cc2-c2ccc3nccnc3c2)n1` [Example 199, N-(4-chlorobenzyl)-1-(6-methylpyridin-2-yl)-5-(quinoxalin-6-yl)-1H-pyrazole-3-carboxyamide], > 100 nM; with `COc1cccc(NC(=O)c2cc(-c3ccc4ncnn4c3)n(-c3cccc(C)n3)n2)c1` [Example 91, 5-([1,2,4]triazolo[1,5-α]pyridin-6-yl)-N-(3-methoxyphenyl)-1-(6-methylpyridin-2-yl)-1H-pyrazole-3-carboxyamide], 10 to 100 nM.
With `Cc1cccc(-n2nc(C(=O)Nc3ccc(F)nc3)cc2-c2ccc3ncnn3c2)n1` [Example 152, 5-([1,2,4]triazolo[1,5-α]pyridin-6-yl)-N-(6-fluoropyridin-3-yl)-1-(6-methylpyridin-2-yl)-1H-pyrazole-3-carboxyamide] the figure was 4.6 nM; with `Cc1cccc(-n2nc(C(=O)Nc3cccc(S(N)(=O)=O)c3)cc2-c2ccc3ncsc3c2)n1` [Example 45, 5-(benzo[d]thiazol-6-yl)-1-(6-methylpyridin-2-yl)-N-(3-sulfamoylphenyl)-1H-pyrazole-3-carboxyamide], 2.4 nM; with `Cc1cccc(-n2nc(C(=O)Nc3ccccc3F)cc2-c2ccc3nccnc3c2)n1` [Example 185, N-(2-fluorophenyl)-1-(6-methylpyridin-2-yl)-5-(quinoxalin-6-yl)-1H-pyrazole-3-carboxyamide], < 100 nM.
In turn, `CNc1cccc(NC(=O)c2cc(-c3ccc4ncsc4c3)n(-c3cccc(C)n3)n2)c1` [Example 12, 5-(benzo[d]thiazol-6-yl)-N-(3-(methylamino)phenyl)-1-(6-methylpyridin-2-yl)-1H-pyrazole-3-carboxyamide] gave a concentration for half-maximal inhibition (IC50) of 6.1 nM.
With `Cc1cccc(-n2nc(C(=O)Nc3ccc(F)c(Cl)c3)cc2-c2ccc3ncnn3c2)n1` [Example 140, 5-([1,2,4]triazolo[1,5-α]pyridin-6-yl)-N-(3-chloro-4-fluorophenyl)-1-(6-methylpyridin-2-yl)-1H-pyrazole-3-carboxyamide] the figure was ~10 nM.
With `Cc1cccc(-n2nc(C(=O)Nc3cccc(F)c3F)cc2-c2ccc3ncnn3c2)n1` [Example 133, 5-([1,2,4]triazolo[1,5-α]pyridin-6-yl)-N-(2,3-difluorophenyl)-1-(6-methylpyridin-2-yl)-1H-pyrazole-3-carboxyamide], the half-maximal inhibitory concentration (IC50) lay in the range of 10 to 100 nM.
With `Cc1cccc(-n2nc(C(=O)Nc3cccc([S+](C)[O-])c3)cc2-c2ccc3ncsc3c2)n1` (stereo not drawn) [Example 38, 5-(benzo[d]thiazol-6-yl)-1-(6-methylpyridin-2-yl)-N-(3-(methylsulfinyl)phenyl)-1H-pyrazole-3-carboxyamide] the figure was 1.8 nM; with `Cc1cccc(NC(=O)c2cc(-c3ccc4ncsc4c3)n(-c3cccc(C)n3)n2)c1` [Example 19, 5-(benzo[d]thiazol-6-yl)-N-(3-tolyl)-1-(6-methylpyridin-2-yl)-1H-pyrazole-3-carboxyamide], 10 to 100 nM; with `Cc1cccc(-n2nc(C(=O)Nc3cc(F)ccc3F)cc2-c2ccc3ncnn3c2)n1` [Example 135, 5-([1,2,4]triazolo[1,5-α]pyridin-6-yl)-N-(2,5-difluorophenyl)-1-(6-methylpyridin-2-yl)-1H-pyrazole-3-carboxyamide], 10 to 100 nM.
The same measure for `Cc1cccc(-n2nc(C(=O)NCc3cccc(F)c3)cc2-c2ccc3nccnc3c2)n1` [Example 197, N-(3-fluorobenzyl)-1-(6-methylpyridin-2-yl)-5-(quinoxalin-6-yl)-1H-pyrazole-3-carboxyamide]: 10 to 100 nM; for `COc1ccc(NC(=O)c2cc(-c3ccc4ncnn4c3)n(-c3cccc(C)n3)n2)cc1F` [Example 98, 5-([1,2,4]triazolo[1,5-α]pyridin-6-yl)-N-(3-fluoro-4-methoxyphenyl)-1-(6-methylpyridin-2-yl)-1H-pyrazole-3-carboxyamide]: 5.3 nM.
With `COc1ccc(CNC(=O)c2cc(-c3ccc4ncnn4c3)n(-c3cccc(C)n3)n2)cc1` [Example 159, 5-([1,2,4]triazolo[1,5-α]pyridin-6-yl)-N-(4-methoxybenzyl)-1-(6-methylpyridin-2-yl)-1H-pyrazole-3-carboxyamide] the figure was 10 to 100 nM.
`Cc1cccc(-n2nc(C(=O)Nc3ccc(N)cc3)cc2-c2ccc3ncnn3c2)n1` [Example 103, 5-([1,2,4]triazolo[1,5-α]pyridin-6-yl)-N-(4-aminophenyl)-1-(6-methylpyridin-2-yl)-1H-pyrazole-3-carboxyamide]: the IC50 amounted to 9.1 nM.
`COc1ccc(NC(=O)c2cc(-c3ccc4nccnc4c3)n(-c3cccc(Br)n3)n2)cc1` [Example 207, 1-(6-bromopyridin-2-yl)-N-(4-methoxyphenyl)-5-(quinoxalin-6-yl)-1H-pyrazole-3-carboxyamide] had an IC50 of 10 to 100 nM.
With `Cc1cccc(-n2nc(C(=O)Nc3ccc(S(C)(=O)=O)cc3F)cc2-c2ccc3ncsc3c2)n1` [Example 44, 5-(benzo[d]thiazol-6-yl)-N-(2-fluoro-4-(methylsulfonyl)phenyl)-1-(6-methylpyridin-2-yl)-1H-pyrazole-3-carboxyamide] the figure was 13 nM; with `Cc1cccc(-n2nc(C(=O)Nc3cccc(F)c3)cc2-c2ccc3ncnn3c2)n1` [Example 125, 5-([1,2,4]triazolo[1,5-α]pyridin-6-yl)-N-(3-fluorophenyl)-1-(6-methylpyridin-2-yl)-1H-pyrazole-3-carboxyamide], 10 to 100 nM.
The same measure for `Cc1cccc(-n2nc(C(=O)Nc3ccc(F)cc3Br)cc2-c2ccc3ncnn3c2)n1` [Example 142, 5-([1,2,4]triazolo[1,5-α]pyridin-6-yl)-N-(2-bromo-4-fluorophenyl)-1-(6-methylpyridin-2-yl)-1H-pyrazole-3-carboxyamide]: 10 to 100 nM.
With `COc1ccc(NC(=O)c2cc(-c3ccc4nccnc4c3)n(-c3cccc(C)n3)n2)cc1` [Example 164, N-(4-methoxyphenyl)-1-(6-methylpyridin-2-yl)-5-(quinoxalin-6-yl)-1H-pyrazole-3-carboxyamide] the figure was 18 nM.
As to `Cc1cccc(-n2nc(C(=O)NCc3ccccc3F)cc2-c2ccc3ncsc3c2)n1` [Example 77, 5-(benzo[d]thiazol-6-yl)-N-(2-fluorobenzyl)-1-(6-methylpyridin-2-yl)-1H-pyrazole-3-carboxyamide], the half-inhibitory concentration (IC50) was 7.2 nM.
`Cc1cccc(-n2nc(C(=O)Nc3cccc(S(C)(=O)=O)c3)cc2-c2ccc3ncsc3c2)n1` [Example 40, 5-(benzo[d]thiazol-6-yl)-1-(6-methylpyridin-2-yl)-N-(3-(methylsulfonyl)phenyl)-1H-pyrazole-3-carboxyamide] registered a concentration for half-maximal inhibition (IC50) of 3.3 nM.
With `Cc1cccc(-n2nc(C(=O)Nc3cccc(Cl)c3)cc2-c2ccc3ncnn3c2)n1` [Example 128, 5-([1,2,4]triazolo[1,5-α]pyridin-6-yl)-N-(3-chlorophenyl)-1-(6-methylpyridin-2-yl)-1H-pyrazole-3-carboxyamide], the concentration for half-maximal inhibition (IC50) was 10 to 100 nM.
In turn, `Cc1cccc(-n2nc(C(=O)Nc3ccc(NC4CCS(=O)(=O)C4)cc3)cc2-c2ccc3ncsc3c2)n1` (stereo not drawn) [Example 63, 5-(benzo[d]thiazol-6-yl)-N-(4-((1,1-dioxidotetrahydrothiophen-3-yl)amino)phenyl)-1-(6-methylpyridin-2-yl)-1H-pyrazole-3-carboxyamide] registered an IC50 of 3.7 nM.
